{
  "source": "patent US11331424B2",
  "about": "“Apparatus, systems and methods for delivery of medication to the brain to treat neurological conditions” (InCube Labs, LLC, priority 2009, dated 2022)",
  "origin": "cited, not measured here",
  "key": {"[1]": {"tested_on": "evoked and spontaneous epileptic neural activity", "conditions": "human patients"}, "[2]": {"conditions": "many patients; significant = more than about 10% increase in urine production or more than about 5% decrease in plasma electrolyte"}, "[3]": {"conditions": "oral administration"}, "[4]": {"tested_on": "evoked and spontaneous epileptic neural activity", "conditions": "epileptic animal models"}},
  "note": "Read-outs that look alike come from different tables or passages of the source.",
  "data": [
    {"smiles": "NS(=O)(=O)c1cc(C(=O)O)c(NCc2ccco2)cc1Cl", "note": "[Furosemide]", "values": [
      {"measurement": "effect on evoked and spontaneous epileptic neural activity and subsequent cortical spreading depression", "setting": "[1]", "result": "block evoked and spontaneous epileptic neural activity and subsequent cortical spreading depression"},
      {"measurement": "threshold dosage which produces a significant increase in diuresis and/or significant decrease in the patient's electrolyte level(s)", "setting": "[2]", "result": "about 20 mg"},
      {"measurement": "time to get into the patient's blood stream", "setting": "[3]", "result": "≥ 30", "unit": "min"},
      {"measurement": "effect on evoked and spontaneous epileptic neural activity and subsequent cortical spreading depression", "setting": "[4]", "result": "block evoked and spontaneous epileptic neural activity and subsequent cortical spreading depression"}
    ]}
  ]
}
